Experimental data as given in ChEMBL document CHEMBL1201862, “PubChem BioAssay data set” (2004).
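Interpolation was linear, between the two tested concentrations surrounding the appropriate level; five concentrations were tested over 48 hours in 96-well plates. GI50 is the concentration that inhibits growth by half.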 Active and inactive are the calls of the source. Cut-off read from the data, not from the text of the source: active = GI50 up to about 1.1 µM and inactive = higher.

How the values were obtained:
Test in all cases: NCI tumour cell line growth inhibition, 48 h
SK-OV-3 = test system: SK-OV-3
HT-29 = test system: HT-29
SNB-19 = test system: SNB-19
IGROV-1 = test system: IGROV-1
786-0 = test system: 786-0
MDA-MB-231 = test system: MDA-MB-231
U-251 = test system: U-251
DU-145 = test system: DU-145
MDA-MB-435 = test system: MDA-MB-435
CAKI-1 = test system: CAKI-1
SW-620 = test system: SW-620
BT-549 = test system: BT-549
SN12C = test system: SN12C
SK-MEL-28 = test system: SK-MEL-28
LOX IMVI = test system: LOX IMVI
M14 = test system: M14
RXF 393 = test system: RXF 393
MOLT-4 = test system: MOLT-4
HCT-116 = test system: HCT-116
UACC-62 = test system: UACC-62

Row | Compound | GI50 (SK-OV-3) | GI50 (HT-29) | GI50 (SNB-19) | GI50 (IGROV-1) | GI50 (786-0) | GI50 (MDA-MB-231) | GI50 (U-251) | GI50 (DU-145) | GI50 (MDA-MB-435) | GI50 (CAKI-1) | GI50 (SW-620) | GI50 (BT-549) | GI50 (SN12C) | GI50 (SK-MEL-28) | GI50 (LOX IMVI) | GI50 (M14) | GI50 (RXF 393) | GI50 (MOLT-4) | GI50 (HCT-116) | GI50 (UACC-62)
1 | COc1c(Br)cc2c(c1OC)C(Br)CCC(Br)(Br)C2=O (stereo not given) | 2.9 µM (inactive) | 0.968 µM (active) | 4.36 µM (inactive) | 0.482 µM (active) | 0.385 µM (active) | 3.1 µM (inactive) | 2.18 µM (inactive) | 3.01 µM (inactive) | 0.434 µM (active) | 2.77 µM (inactive) | 0.38 µM (active) | 0.527 µM (active) | 0.382 µM (active) | 2.5 µM (inactive) | 0.419 µM (active) | 0.228 µM (active) | 0.706 µM (active) | < 0.0183 µM (active) | 0.273 µM (active) | 3.18 µM (inactive)
2 | c1cc(CSc2ncnc3[nH]cnc23)ccn1 | 41.3 µM (inactive) | 48.3 µM (inactive) | > 100 µM (inactive) | > 100 µM (inactive) | 39 µM (inactive) | > 100 µM (inactive) | > 100 µM (inactive) | 65.3 µM (inactive) | 53.2 µM (inactive) | > 100 µM (inactive) | > 100 µM (inactive) | 73.8 µM (inactive) | > 100 µM (inactive) | > 100 µM (inactive) | 28.2 µM (inactive) | 34.8 µM (inactive) | > 100 µM (inactive) | 34.7 µM (inactive) | 77.8 µM (inactive) | 37.4 µM (inactive)
3 | CC1OC(O[C@H]2C3C=CO[C@@H](OC4OC(CO)C(O)C(O)C4O)C3[C@@]3(COC(=O)/C=C/c4ccccc4)O[C@@H]23)C(O)C(O)C1O (stereo not given in full) | > 100 µM (inactive) | > 100 µM (inactive) | > 100 µM (inactive) | > 100 µM (inactive) | > 100 µM (inactive) | > 100 µM (inactive) | > 100 µM (inactive) | > 100 µM (inactive) | > 100 µM (inactive) | > 100 µM (inactive) | > 100 µM (inactive) | > 100 µM (inactive) | > 100 µM (inactive) | > 100 µM (inactive) | > 100 µM (inactive) | > 100 µM (inactive) | > 100 µM (inactive) | > 100 µM (inactive) | > 100 µM (inactive) | > 100 µM (inactive)
